{"source": "patent US20250270170A1", "about": "“2,3-DIMETHOXY-5-METHYL-1,4-BENZOQUINONE ALKYL ALCOHOL DERIVATIVE AND USE THEREOF” (BEIJING ANJIANXI BIO-MEDICAL TECHNOLOGY CO., LTD., priority 2021, published 2025)", "key": {"[1]": {"test_system": "ICR mice", "assay": "Example 6: repeated gavage administration toxicity for 2 weeks", "format": "in vivo", "description": "The compound of formula (I) was gavagely administered continuously to ICR mice for 14 days, to evaluate the nature, degree, and time-effect relationship of the toxic reactions that the compound of formula (I) may cause, and to provide reference information for the subsequent research.\nPreparation of the administration formulation of the test sample in each dosage group: The preparation of the test sample was the same as that in Example 5. When the test sample was used, a final volume mark was marked on a container, and a required amount of the test sample was weighed (weighing weight of the test sample=theoretical dosage/conversion factor) into a container. An appropriate amount of solvent was firstly added, and the mixture was stirred and mixed thoroughly, and sonicated if necessary. The solvent was further added to the final volume mark to dilute and mix evenly, to give a visually uniform formulation, which was verified by the methodology. […] The administration formulation of the test sample with a concentration range of 0.01 mg/mL to 60 mg/mL was stable within 8 days when being stored airtightly at 2° C. to 8\nRoute of Administration: Oral Gavage\nAdministered once a day; while maintaining the same administration period every day.\nAdministered continuously for 14 days\nThe dosage was calculated based on the latest animal body weight.\nThe administration formulation of the test sample was stirred at room temperature for at least 10 minutes, and suspended uniformly with visual inspection before the administration. The administration formulation of the test sample was required to be continually stirred during the administration.\nObservation indicators: observation of general physical signs, detailed clinical observation, body weight, and food intake were included."}, "[2]": {"test_system": "cisplatin-induced acute kidney damage in mice", "assay": "Example 11: kidney weight and kidney coefficient in cisplatin-induced acute kidney damage model", "format": "in vivo, C57BL/6J mice", "settings": "for Kidney coefficient (kidney weight/body weight), x (mean) / Kidney weight after the assay, x (mean): group mean", "procedure": "(§1) 42 male C57BL/6J mice (age: 6 to 8 weeks, body weight 18-20 g, certificate number: 11400700238365) were purchased from Si Pei Fu (Beijing) Biotechnology Co., Ltd., and raised in an SPF-grade animal room of the Institute of Materia Medica, Chinese Academy of Medical Sciences, at a temperature of 20 to 25° C., a relative humidity of 40% to 70%, and a cycle of 12 hours of light and 12 hours of dark. The animals had free access to water and food. After 3 days of normal feeding, mice with good physical conditions after the veterinary examination were selected for this assay. Before grouping, a marker was used to mark on the base of the animals' tail. After grouping, each animal was marked with an ear cutout (7 mice in each group).\n(§2) Assay animals: 42 7-week-old male C57 mice were used for animal testing after an adaptive feeding.\n(§3) Group 1: blank control group;\n(§4) The preparation of the R01 formulation administration test solution was the same as that in Example 5: an appropriate amount of the R01 formulation was weighed according to the three dosages set in the assay, respectively, and an appropriate volume of 0.5% CMC-Na aqueous solution was added. The mixture was vortexed and sonicated until mixed evenly, to give the administration test solutions with concentrations of […], respectively, which were ready for use.\n(§5) Animal testing period: 7 days (excluding adaptive feeding), hereinafter referred to as: D1-D7.\n1. The first group was a solvent control group: N=7, all mice were males (the same below); • a) 0.5% solution of sodium carboxymethyl cellulose was gavagely administered from D1 to D6 (twice a day for each animal, with an interval of 8 hours between the morning and the afternoon). • b) Physiological saline was intraperitoneally injected in one-time on D4. • c) On D7, blood was collected from the orbit for euthanasia (300 ul of serum was extracted), the left kidney was fixed in formaldehyde, and the right kidney was preserved in liquid nitrogen (WB study may be carried out).\n3) Each animal was weighed before euthanasia, and the weight was recorded. Two kidneys were weighed as soon as possible after euthanasia, and the weight was recorded. Then, the two kidneys were quickly fixed or cryopreserved, and the kidney coefficient of the mouse was calculated (kidney weight/mouse weight).\n(§6) The body weight of the animals when being grouped for administration in each group was recorded. The body weight and the kidney weight at the end of the assay were also recorded, and the kidney coefficient was calculated. The creatinine and urea nitrogen values in the blood samples sent for testing were recorded. The kidneys were stained with HE and PAS, and the slides were scanned. A report was issued after the pathological analysis.\nThe assay data were calculated and processed statistically using Microsoft Office Excel 2007 software. Unless otherwise specified, the data were expressed as mean±standard error (Mean±SE), and t-test was used for comparison between two groups."}, "[3]": {"test_system": "cisplatin-induced acute kidney damage in mice", "assay": "Example 11: renal pathology (HE, PAS) and pathological scoring", "format": "in vivo, C57BL/6J mice", "settings": "bid, listed as R01", "procedure": "as §1, §2, §3, §4, §5\n1. […]\nas §6, with “The kidneys were stained with HE and PAS, and the slides were scanned. A report was issued after the pathological analysis.” left out"}, "[4]": {"settings": "100 mg/kg dosage group, surviving animals"}, "[5]": {"settings": "individual animals No. 1-7, cisplatin model, R01 6 mg/kg, listed as R01, 6 mg/kg"}, "[6]": {"settings": "individual animals No. 1-7, cisplatin model, R01 18 mg/kg, listed as R01, 18 mg/kg"}, "[7]": {"settings": "individual animals No. 1-7, cisplatin model, R01 36 mg/kg, listed as R01, 36 mg/kg"}}, "note": "Values joined by “and” are separate entries in the source; they are usually repeats but may differ in a detail not shown here. Equal values may be shown once. “Also recorded” adds a separate entry of the source.", "data": [{"smiles": "COC1=C(OC)C(=O)C(CCCCCCCCCCOC(=O)Cc2c(C)n(C(=O)c3ccc(Cl)cc3)c3ccc(OC)cc23)=C(C)C1=O", "note": "[compound of formula (I)]", "values": [{"measurement": "abnormal reactions", "setting": "[1]; 25 mg/kg dosage group", "value": "No abnormal reactions"}, {"measurement": "body weight", "setting": "[1]; 25 mg/kg dosage group", "value": "increased normally"}, {"measurement": "animals found dead", "setting": "[1]; 25 mg/kg dosage group, 20 animals per group, gavage once a day, 14 days", "value": "No animal was found dead"}, {"measurement": "abnormal reactions", "setting": "[1]; 50 mg/kg dosage group", "value": "No abnormal reactions"}, {"measurement": "body weight", "setting": "[1]; 50 mg/kg dosage group", "value": "increased normally"}, {"measurement": "animals found dead", "setting": "[1]; 50 mg/kg dosage group, 20 animals per group, gavage once a day, 14 days", "value": "No animal was found dead"}, {"measurement": "abnormal reactions", "setting": "[1]; [4]", "value": "No abnormal reactions"}, {"measurement": "body weight", "setting": "[1]; [4]", "value": "increased normally"}, {"measurement": "animals found dead", "setting": "[1]; 100 mg/kg dosage group, 20 animals per group, gavage once a day, 14 days", "value": 3}, {"measurement": "animals found dead", "setting": "[1]; 300 mg/kg dosage group, 20 animals per group, gavage once a day, 14 days", "value": 10}, {"measurement": "animals found dead", "setting": "[1]; 1000 mg/kg dosage group, 20 animals per group, gavage once a day", "value": 13}, {"measurement": "animals found dead", "setting": "[1]; 1000 mg/kg/d dosage group, from D3 to D6, administration then stopped", "value": 4}, {"measurement": "Kidney coefficient (kidney weight/body weight), x (mean)", "setting": "[2]; cisplatin model, R01 6 mg/kg", "value": 0.014}, {"measurement": "Kidney weight after the assay, x (mean)", "setting": "[2]; cisplatin model, R01 6 mg/kg", "value": 0.223, "unit": "g"}, {"measurement": "Kidney coefficient (kidney weight/body weight), x (mean)", "setting": "[2]; cisplatin model, R01 18 mg/kg", "value": 0.013}, {"measurement": "Kidney weight after the assay, x (mean)", "setting": "[2]; cisplatin model, R01 18 mg/kg", "value": 0.211, "unit": "g"}, {"measurement": "Kidney coefficient (kidney weight/body weight), x (mean)", "setting": "[2]; cisplatin model, R01 36 mg/kg", "value": 0.013}, {"measurement": "Kidney weight after the assay, x (mean)", "setting": "[2]; cisplatin model, R01 36 mg/kg", "value": 0.207, "unit": "g"}, {"measurement": "Kidney coefficient (kidney weight/body weight)", "setting": "[2]; [5]", "value": "0.013 (3×) and 0.015 and 0.014 (2×) and 0.018"}, {"measurement": "Kidney weight after the assay", "setting": "[2]; [5]", "value": "0.207 g and 0.212 g and 0.209 g and 0.224 g and 0.228 g and 0.214 g and 0.270 g"}, {"measurement": "Kidney coefficient (kidney weight/body weight)", "setting": "[2]; [6]", "value": "0.014 (3×) and 0.013 (4×)"}, {"measurement": "Kidney weight after the assay", "setting": "[2]; [6]", "value": "0.214 g and 0.211 g (2×) and 0.206 g and 0.215 g and 0.210 g and 0.213 g"}, {"measurement": "Kidney coefficient (kidney weight/body weight)", "setting": "[2]; [7]", "value": "0.012 and 0.014 (4×) and 0.013 (2×)"}, {"measurement": "Kidney weight after the assay", "setting": "[2]; [7]", "value": "0.192 g and 0.216 g and 0.203 g and 0.228 g and 0.213 g and 0.189 g and 0.206 g"}, {"measurement": "Kidney coefficient (kidney weight/body weight)", "setting": "[2]; with cisplatin 10 mg/kg, amifostine 50 mg/kg i.p., R01 6, 18, 36 mg/kg bid", "value": "equivalent to that of the blank control group"}, {"measurement": "pathological damage of kidneys", "setting": "[3]; cisplatin 10 mg/kg + R01 6 mg", "value": "severe renal tubular damage, epithelial cell necrosis and slight protein casts and 2 animals suffered serious kidney damage, and the others were mildly damaged and significantly reduced"}, {"measurement": "pathological damage of kidneys", "setting": "[3]; cisplatin 10 mg/kg + R01 36 mg", "value": "Only one mouse in this group showed slight pathological damage to the kidney; also recorded: basically complete kidney tissue morphology, slight damage"}]}]}
